# In patent USRE43327E1, “Hydrophobic polyamine analogs and methods for their use” (Aminex Therapeutics, Inc., priority 2001, dated 2012):
# Where “and” joins values, the source holds several entries; their conditions need not be identical. Equal entries are not always repeated.
# Legend:
# Format in all cases: cell-based
# SK-OV-3 [1] = assay: Growth inhibition assay (MTS/PMS) with DFMO, SK-OV-3; conditions: in the presence of DFMO (1-5 mM), 1 mM AG, 0.5 μM SPD, six days; repeat determinations; read-out: Cell Line EC50 SK-OV-3
# Method: (§1) Medias were obtained from Mediatech, Inc. (Herdon, Va.) and serums from Gibco BRL (Gaithersburg, Md.). 50 U/ml penicillin, 50 μg/ml streptomycin and 2 mM L-glutamine (all from Bio Whittaker, Walkersville, Md.) were included in all cultures. […] When cells were cultured with polyamines or ORI compounds, 1 mM aminoguanidine (AG; Sigma) was included to inhibit serum amine oxidase activity.
# PC-3 [2] = assay: Growth inhibition assay (MTS/PMS) with DFMO, PC-3; conditions: in the presence of DFMO (1-5 mM), 1 mM AG, 0.5 μM SPD, six days; repeat determinations; read-out: Cell Line EC50 PC-3
# Method: as §1
# [3] = test system: 4 cell lines (A375, MDA-MB-231, PC-3, SK-OV-3); assay: Growth inhibition with DFMO, average over 4 cell lines; conditions: for EC50: Table 3, average over cell lines, with DFMO, read-out: AVG. EC50; for growth inhibition / EC50 with polyamine synthesis inhibitor, comparison in words: compared with lysine-spermine conjugates (ORI 1202, ORI 1426) or PAs lacking a hydrophobic domain
# Method: Cells were plated in 96-well plates such that they would be in log growth for the duration of the assay. The day after plating, PAs were added to the cells, and growth, if any, permitted to continue for six days in the presence of 1 mM AG and 0.5 μM SPD to insure that any growth inhibition was not the result of depletion of external polyamines in the media. At the end of the six days, cell growth was measured by MTS/PMS dye assay (Cell Titer 96 Aqueous Non-Radioactive Cell Proliferation Assay; Promega, Madison, Wis.).
# MDA-MB-231 [4] = assay: Growth inhibition assay (MTS/PMS) with DFMO, MDA-MB-231; conditions: in the presence of DFMO (1-5 mM), 1 mM AG, 0.5 μM SPD, six days; repeat determinations; read-out: Cell Line EC50 MDA-MB-231
# Method: as §1
# A375 [5] = assay: Growth inhibition assay (MTS/PMS) with DFMO, A375; conditions: in the presence of DFMO (1-5 mM), 1 mM AG, 0.5 μM SPD, six days; repeat determinations; read-out: Cell Line EC50 A375
# Method: as §1
# SK-OV-3 [6] = assay: Growth inhibition assay, PA alone, SK-OV-3; conditions: PA alone (no DFMO), six days; repeat determinations; read-out: Cell Line IC50 SK-OV-3
# Method: as §1
# A375 [7] = assay: Growth inhibition assay, PA alone, A375; conditions: PA alone (no DFMO), six days; repeat determinations; read-out: Cell Line IC50 A375
# Method: as §1
# MDA-MB-231 [8] = assay: Growth inhibition assay, PA alone, MDA-MB-231; conditions: PA alone (no DFMO), six days; repeat determinations; read-out: Cell Line IC50 MDA-MB-231
# Method: as §1
# PC-3 [9] = assay: Growth inhibition assay, PA alone, PC-3; conditions: PA alone (no DFMO), six days; repeat determinations; read-out: Cell Line IC50 PC-3
# Method: as §1
SMILES,EC50 (SK-OV-3 [1]),EC50 (PC-3 [2]),EC50 [3] [µM],EC50 (MDA-MB-231 [4]),EC50 (A375 [5]),IC50 (SK-OV-3 [6]) [µM],IC50 (A375 [7]) [µM],IC50 (MDA-MB-231 [8]) [µM],IC50 (PC-3 [9]) [µM],"growth inhibition / EC50 with polyamine synthesis inhibitor, comparison in words [3]"
CCCCCCCCCCCCCC(=O)NCCCC[C@H](N)C(=O)NCCCNCCCCNCCCN [IA5],4.6 µM,0.189 µM,1.26,0.208 µM,0.025 µM,21.5,> 30,> 30,9.87,–
CC(=O)NCCCC[C@H](N)C(=O)NCCCNCCCCNCCCN [IA11],> 30 µM,2.3 µM,–,> 30 µM,> 30 µM,> 30,> 30,> 30,> 30,higher EC50
NCCCNCCCCNCCCNC(=O)[C@@H](N)CCCCNC(=O)CCCCCCCCC(=O)NCCCC[C@H](N)C(=O)NCCCNCCCCNCCCN [IA19],> 30 µM,> 30 µM,–,> 30 µM,0.214 µM,> 30,> 30,> 30,> 30,no improvement
NCCCNCCCCNCCCNC(=O)[C@@H](N)CCCCNC(=O)c1ccccc1 [IA24],–,> 30 µM,–,–,1.56 µM,–,> 30,–,> 30,–
NCCCNCCCCNCCCNC(=O)[C@@H](N)CCCCNC(=O)c1ccc(N)cc1 [IA28],> 30 µM,0.982 µM,–,> 30 µM,1.66 µM,> 30,> 30,> 30,> 30,–
NCCCNCCCCNCCCNC(=O)[C@H](N)CCCCNC(=O)C(F)(F)C(F)(F)C(F)(F)F [IB39],> 100 µM,> 100 µM,–,52.5 µM,–,> 100,–,4.26,> 100,–
NCCCC[C@H](NC(=O)c1ccccc1)C(=O)NCCCNCCCCNCCCN [ID24],> 30 µM,3.3 µM,–,4.75 µM,5.98 µM,> 30,> 30,> 30,> 30,–
NCCCCC(NC(=O)c1ccco1)C(=O)NCCCNCCCCNCCCN (centres unmarked) [ID25],> 30 µM,5.27 µM,–,8.76 µM,8.78 µM,> 30,> 30,> 30,> 30,–
CCCCCCCCCCCCCCCC(=O)NCCCC[C@H](NC(=O)CCCCCCCCCCCCCCC)C(=O)NCCCNCCCCNCCCN [IE4],0.132 µM,0.2 µM,–,0.267 µM,–,7.25,–,17.9,21.5,–
CCS(=O)(=O)NCCCC[C@H](N)C(=O)NCCCNCCCCNCCCN [IIA2],> 30 µM,> 30 µM,–,–,> 30 µM,> 30,> 30,–,> 30,–
NCCCNCCCCNCCCNC(=O)[C@@H](N)CCCCNS(=O)(=O)c1ccccc1 [IIA16],> 30 µM,0.72 µM,–,2.57 µM,1.21 µM,> 30,> 30,> 30,> 30,–
Cc1cc(C)c(S(=O)(=O)NCCCC[C@H](N)C(=O)NCCCNCCCCNCCCN)c(C)c1 [IIA17],2.59 µM,0.18 µM,–,< 1 µM,0.629 µM,> 30,> 30,605,> 30,–
CN(C)c1cccc2c(S(=O)(=O)NCCCC[C@H](N)C(=O)NCCCNCCCCNCCCN)cccc12 [IIA20],2.65 µM,0.463 µM,1.28,1.61 µM,0.405 µM,> 30,> 30,> 30,> 30,–
CCS(=O)(=O)NCCCC[C@@H](N)C(=O)NCCCNCCCCNCCCN [IIB2],> 30 µM,3.64 µM,–,–,7.25 µM,> 30,> 30,–,> 30,–
Cc1cc(C)c(S(=O)(=O)NCCCC[C@@H](N)C(=O)NCCCNCCCCNCCCN)c(C)c1 [IIB17],26.2 µM,0.919 µM,–,–,1.52 µM,> 30,> 30,–,> 30,–
Cc1cc(C)c(S(=O)(=O)NC(CCCCN)C(=O)NCCCNCCCCNCCCN)c(C)c1 (centres unmarked) [IID17],23.9 µM,4.09 µM,9.74,5.1 µM,5.87 µM,> 30,> 30,> 30,> 30,–
CCCCCCCC/C=C\CCCCCCCC(=O)NCCCC[C@H](N)C(=O)NCCCNCCCCNCCCN [IIIA1],0.398 µM,0.386 µM,0.264,0.197 µM,0.076 µM,> 30,> 30,> 30,> 30,–
CCCCC/C=C\C/C=C\CCCCCCCC(=O)NCCCC[C@H](N)C(=O)NCCCNCCCCNCCCN [IIIA5],–,–,–,0.207 µM,0.084 µM,–,> 30,> 30,–,–
C[C@H](CCC(=O)NCCCC[C@H](N)C(=O)NCCCNCCCCNCCCN)[C@H]1CC[C@H]2[C@@H]3[C@H](O)C[C@@H]4C[C@H](O)CC[C@]4(C)[C@H]3C[C@H](O)[C@]12C [IIIA7],2.94 µM,0.255 µM,0.874,0.215 µM,0.087 µM,> 3,> 3,> 3,> 3,–
CCCCCCCNCCCC[C@H](N)C(=O)NCCCNCCCCNCCCN [IVA6],0.24 µM,0.29 µM,0.395,0.51 µM,0.54 µM,> 100,> 100,> 100,> 100,–

# Continued, values first:
EC50 (SK-OV-3 [1]),EC50 (PC-3 [2]),EC50 [3] [µM],EC50 (MDA-MB-231 [4]),EC50 (A375 [5]),IC50 (SK-OV-3 [6]) [µM],IC50 (A375 [7]) [µM],IC50 (MDA-MB-231 [8]) [µM],IC50 (PC-3 [9]) [µM],"growth inhibition / EC50 with polyamine synthesis inhibitor, comparison in words [3]",SMILES
0.097 µM and 0.167 µM,0.022 µM,0.053,0.032 µM and 0.018 µM,< 0.01 µM and 0.01 µM,–,–,–,–,–,CCCCCCCCCCCCCCCCC(=O)NCCCC[C@H](N)C(=O)NCCCNCCCCNCCCN [IA3]
> 30 µM,1.35 µM and 0.853 µM,6.23,1.12 µM,2.3 µM and 1.75 µM,> 30,> 30,> 30,> 30,–,CCCCCCCC(=O)NCCCC[C@H](N)C(=O)NCCCNCCCCNCCCN [IA7]
> 100 µM,> 100 µM,> 100,> 100 µM,> 100 µM,> 100,> 100,> 100,> 100,–,CC(C)CC(=O)NCCCC[C@@H](N)C(=O)NCCCNCCCCNCCCN [IB35]
2.64 µM,1.33 µM,1.26,0.636 µM,0.44 µM,18.1,17.9,18.6,18.7,–,CCCCCCCCCCCCCCCC(=O)NC(CCCCN)C(=O)NCCCNCCCCNCCCN (centres unmarked) [ID4]
17.2 µM,7.42 µM,9.54,8.25 µM,5.29 µM,> 30,> 30,> 30,> 30,–,CCCCCCCC(=O)NC(CCCCN)C(=O)NCCCNCCCCNCCCN (centres unmarked) [ID7]
> 30 µM,> 30 µM,> 30,> 30 µM,> 30 µM,> 30,> 30,> 30,> 30,–,CCS(=O)(=O)N[C@@H](CCCCN)C(=O)NCCCNCCCCNCCCN [IID2]
0.272 µM,0.152 µM,–,0.392 µM,–,20.1,–,24.5,14.3,–,CCCCCCCCCCCCCCCCS(=O)(=O)NCCCC[C@H](NS(=O)(=O)CCCCCCCCCCCCCCCC)C(=O)NCCCNCCCCNCCCN [IIE10]
0.076 µM,0.022 µM,0.034,0.029 µM,0.01 µM,> 30,> 30,> 30,> 30,–,CCCCCCCC/C=C/CCCCCCCC(=O)NCCCC[C@H](N)C(=O)NCCCNCCCCNCCCN [IIIA2]
0.095 µM,0.06 µM,0.055,0.047 µM,0.018 µM,> 30,22.3,> 30,25.8,–,CCCCC/C=C/C/C=C/CCCCCCCC(=O)NCCCC[C@H](N)C(=O)NCCCNCCCCNCCCN [IIIA6]
0.14 µM,0.075 µM,0.079,–,0.05 µM and 0.061 µM,> 3,–,–,> 3,–,CCCC/C=C\CCCCCCCCCCNCCCC[C@H](N)C(=O)NCCCNCCCCNCCCN [IVA18]
